Data on two molecules can be found in PMC12147183, “Lacritin cleavage-potentiated targeting of iron - respiratory reciprocity promotes bacterial death” (The Journal of Biological Chemistry, 2025).

The subject of one assay is Fe^2+ uptake by PA14. Type of assay: cell-based, Pseudomonas aeruginosa. On the procedure: Iron depletion was induced in PA14 cells (5 × 10^9 cfu in 10 ml 10 mM Na2HPO4, 1.8 mM KH2PO4, 2.7 mM KCl, 137 mM NaCl (pH 7.2) by treatment with the chelator 1 mM 2,2′-bipyridyl at room temperature for 1 h. After washing twice with 0.9% NaCl, cells were suspended in 1 ml of 1 mM Na2HPO4, 0.18 mM KH2PO4, 0.27 mM KCl, 13.7 mM NaCl for treatment without or with 1, 10, 25, 50 or 100 μM of N-104 (or negative control N-80/C-25 or C-95) for 45 min at 35 °C, incubated at the same temperature for 15 min with 100 μM FeSO4 and 13 mM ascorbic acid, washed twice with 1 mM Na2HPO4, 0.18 mM KH2PO4, 0.27 mM KCl, and 13.7 mM NaCl, and pelleted at 12,000g. The ferrozine assay ([54]) was subsequently employed. Briefly, cells in pellets were lysed with 20 μl of 50 mM NaOH, partially neutralized with 20 μl of 10 mM HCl, subjected to iron release with 20 μl of acidified 0.29 M KMnO4 for 30 min at 80 °C, cooled to room temperature, incubated with 7 μl of 30 mM ferrozine, 1.1 μl of 180 mM neocuproine, 15 μl of 5 M ammonium acetate and 15 μl of 1 M ascorbic acid for 30 min at room temperature and then centrifuged at 21,000g for 10 min. Cellular iron uptake could then be assessed from the supernatant OD565. Single-molecule transport per cell was estimated using a standard curve.

For the next assay, the system named is His-tagged FeoB. In words: His-tagged FeoB binding to peptide columns. Also noted: species or system P. aeruginosa PAO1. The following applies: step gradient 0.3, 0.5, 1.0 M KCl, 0.05% dodecyl-β-D-maltopyranoside, 4 °C, anti-His Western blot, n = 3. On the procedure: (§1) We used the pFeoB plasmid ([6]) with feoB insert from P. aeruginosa PAO1 in pET41-a(+) with a C-terminal 8-His tag and kanamycin-resistant cassette, and E. coli EcCD00397460 plasmid (DNASU Plasmid Repository, Tempe Arizona) with potH insert in PCDF Bravo with C-terminal 10-His tag and streptomycin-resistant cassette. Plasmids of each were generated using standard procedures. His-tagged FeoB or PotH proteins in the supernatant were captured on Ni-Sepharose for 4 h with end-over-end rotation at 4 °C, washed with 10 mM HEPES potassium salt, 10% glycerol, 0.5 M NaCl, 10 mM MgSO4, 10 mM imidazole, and 0.05% dodecyl-β-D-maltopyranoside and eluted with the same wash buffer but containing 0.2 M NaCl and 0.5 M imidazole. Eluted FeoB and PotH were concentrated into 10 mM HEPES potassium salt, 10% glycerol, 10 mM MgSO4, 0.05% dodecyl-β-D-maltopyranoside and 0.15 M NaCl respectively on Amicon Ultra-0.5 Centrifugal UFC505024, UFC503024 and UFC900596 filter units.
(§2) N-104 and C-95 columns (1 ml each) equilibrated in 10 mM HEPES potassium salt, 10% glycerol, 10 mM MgSO4, 0.05% dodecyl-β-D-maltopyranoside, and 0.15 M NaCl were individually mixed at 4 °C overnight with purified FeoB and PotH. […]

The target in another assay is GKY20 (Homo sapiens, UniProt P00734). In words: Dot blot binding assay on immobilized GKY20. To be noted: 20 μM peptide, 2 h at 35 °C, LI-COR detection. How it is done:
After washing three times for 10 min, each with 10 ml of 10 mM Na2HPO4, 1.8 mM KH2PO4, 2.7 mM KCl, 137 mM NaCl (pH 7.2), nitrocellulose membranes were incubated overnight at 4 °C with 1 μg/ml of either rabbit polyclonal ab-C-term with specificity for the C-terminal 54 amino acids of lacritin ([86]) appropriate for N-104 or its analogs, or with rabbit anti-lacritin N-terminus antibody ab-N-term appropriate for C-95. Membranes washed three times for 10 min each with 10 ml of 10 mM Na2HPO4, 1.8 mM KH2PO4, 2.7 mM KCl, 137 mM NaCl (pH 7.2), were then incubated with 0.1 μg/ml of IRDye 680RD labeled donkey antirabbit IgG (926-68073, LI-COR) as described above for LI-COR Odyssey CLx detection.

In the next assay the target is T1, His-tagged PotH (Escherichia coli, UniProt P31135).
T1 construct: host or cells: legend says PA14
The experiment in a line: His-tagged PotH binding to peptide columns. Also noted: species or system E. coli. To be noted: step gradient 0.3, 0.5, 1.0 M KCl, 0.05% dodecyl-β-D-maltopyranoside, 4 °C, anti-His Western blot, n = 3. How it is done:
as §1, §2
(In general: A western blot detects proteins with antibodies after separation by electrophoresis.)

Peptide text beside a SMILES is read from it.

T1 sequence (P31135 whole entry): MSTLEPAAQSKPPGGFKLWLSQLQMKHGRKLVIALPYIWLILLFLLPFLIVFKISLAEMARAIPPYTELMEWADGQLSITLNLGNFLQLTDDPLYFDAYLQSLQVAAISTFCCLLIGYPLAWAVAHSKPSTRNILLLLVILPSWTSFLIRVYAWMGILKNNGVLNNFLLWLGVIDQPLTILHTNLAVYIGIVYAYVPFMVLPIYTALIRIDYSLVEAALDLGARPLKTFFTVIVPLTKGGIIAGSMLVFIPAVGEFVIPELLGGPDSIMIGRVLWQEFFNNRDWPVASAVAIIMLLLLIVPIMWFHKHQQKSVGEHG

Turning to `C[C@H](NC(=O)CNC(=O)[C@@H](NC(=O)[C@H](CO)NC(=O)[C@H](CC(=O)O)NC(=O)[C@H](CO)NC(=O)[C@H](CO)NC(=O)[C@H](C)NC(=O)[C@H](CC(=O)O)NC(=O)[C@@H](N)CCC(=O)O)[C@@H](C)O)C(=O)N[C@@H](CC(=O)O)C(=O)N1CCC[C@H]1C(=O)N[C@@H](C)C(=O)N[C@@H](CCC(N)=O)C(=O)N[C@@H](CCC(=O)O)C(=O)N[C@@H](C)C(=O)NCC(=O)N[C@H](C(=O)N[C@@H](CO)C(=O)N[C@@H](CCCCN)C(=O)N1CCC[C@H]1C(=O)N[C@@H](CC(N)=O)C(=O)N[C@@H](CCC(=O)O)C(=O)N[C@@H](CCC(=O)O)C(N)=O)[C@@H](C)O` [C-95, reference compound] (H-EDASSDSTGADPAQEAGTSKPNEE-NH2), the “effect on exogenous Fe^2+ uptake” value in the assay on Fe^2+ uptake by PA14 (1 to 100 μM peptide) is “had no effect”. In addition, the “KCl elution of His-FeoB from immobilized peptide” value in the assay on His-tagged FeoB is listed as “lacked”. Besides, the “binding to nitrocellulose-immobilized GKY20” value on GKY20 is on record as “Only N-104 bound to GKY20”. In addition, the “KCl elution of His-PotH from immobilized peptide” value at His-tagged PotH is listed as “lacked”.
For `CC(=O)N[C@@H](C)C(=O)N[C@@H](CCC(N)=O)C(=O)N[C@@H](CCCCN)C(=O)N[C@@H](CC(C)C)C(=O)N[C@@H](CC(C)C)C(=O)N[C@@H](CCCCN)C(=O)N[C@@H](CCCCN)C(=O)N[C@@H](Cc1ccccc1)C(=O)N[C@@H](CO)C(=O)N[C@@H](CC(C)C)C(=O)N[C@@H](CC(C)C)C(=O)N[C@@H](CCCCN)C(=O)N1CCC[C@H]1C(=O)N[C@@H](Cc1c[nH]c2ccccc12)C(=O)N[C@@H](C)C(=O)O` [N-104] (Ac-AQKLLKKFSLLKPWA-OH), 10 µM corresponded to half-maximal inhibition with Fe^2+ uptake by PA14 (1 h) (IC50). For the same molecule, the “KCl elution of His-FeoB from immobilized peptide” value with His-tagged FeoB was “eluted with 0.5 and 1 M but not 0.3 M KCl”. The “binding to nitrocellulose-immobilized GKY20” value at GKY20 was “bound to GKY20”. The “KCl elution of His-PotH from immobilized peptide” value on His-tagged PotH is “eluted with 0.5 and 1 M but not 0.3 M KCl”.

As a reminder, the IC50 is the concentration that inhibits the measured activity by half. A low value points to inhibition by little substance.
